Test results published in patent US20230026696A1, “TRPV4 RECEPTOR LIGANDS” (UNIVERSITY OF UTAH RESEARCH FOUNDATION, priority 2019, published 2023).
pIC50: −log10 of the molar value. Where a name gives a salt, the structure may show the parent alone.

molecular target: T1, human TRPV4 (Homo sapiens, UniProt Q9HBA0); assay: Fluorometric cell-based Ca2+ flux assay, HEK-293 cells stably overexpressing human TRPV4; conditions: HEK-293 stably overexpressing human TRPV4; agonist GSK1016790A 30 nM
T1 construct: expressed in transfected cells
T1 sequence (Q9HBA0 whole entry): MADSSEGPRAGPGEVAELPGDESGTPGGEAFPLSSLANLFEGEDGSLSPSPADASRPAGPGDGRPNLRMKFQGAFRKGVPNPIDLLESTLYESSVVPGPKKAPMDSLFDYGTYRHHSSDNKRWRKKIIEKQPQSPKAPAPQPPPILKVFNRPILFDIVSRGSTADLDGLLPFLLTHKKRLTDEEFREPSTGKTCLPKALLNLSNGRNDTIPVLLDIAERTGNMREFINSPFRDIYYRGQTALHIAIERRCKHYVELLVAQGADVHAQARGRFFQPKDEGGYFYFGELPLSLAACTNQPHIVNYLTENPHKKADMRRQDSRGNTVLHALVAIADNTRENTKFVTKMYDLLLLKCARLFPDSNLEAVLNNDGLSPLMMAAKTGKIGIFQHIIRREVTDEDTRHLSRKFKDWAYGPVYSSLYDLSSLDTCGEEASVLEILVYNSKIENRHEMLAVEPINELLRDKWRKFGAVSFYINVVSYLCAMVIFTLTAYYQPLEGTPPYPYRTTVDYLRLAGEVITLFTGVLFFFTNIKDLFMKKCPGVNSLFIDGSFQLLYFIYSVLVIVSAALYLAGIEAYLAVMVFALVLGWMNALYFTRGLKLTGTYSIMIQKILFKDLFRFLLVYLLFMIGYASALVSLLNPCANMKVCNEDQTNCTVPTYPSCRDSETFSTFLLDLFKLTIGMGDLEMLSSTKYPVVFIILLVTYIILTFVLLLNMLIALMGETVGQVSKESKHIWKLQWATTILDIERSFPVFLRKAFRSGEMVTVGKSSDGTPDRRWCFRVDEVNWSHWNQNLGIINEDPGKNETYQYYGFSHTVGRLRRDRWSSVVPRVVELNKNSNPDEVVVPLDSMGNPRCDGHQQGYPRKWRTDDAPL
Protocol: Fluorometric cell-based Ca^2+ flux assays were performed to assess TRPV4 antagonist activity and determine potency (IC50 values) in human embryonic kidney-293 cells (HEK-293) that stably overexpress human TRPV4. The assays were performed according to methods described in: Deering-Rice, C. E., Johansen, M. E., Roberts, J. K., Thomas, K. C., Romero, E. G., Lee, J., Yost, G. S., Veranth, J. M., and Reilly, C. A. (2012), Mol. Pharmacol. 81(3), 411-419; Shapiro, D., Deering-Rice, C. E., Romero, E. G., Hughen, R. W., Light, A. R., Veranth, J. M., and Reilly, C. A. (2013), Chem Res. Toxicol., 26, 750-758; and Deering-Rice, C. E., Mitchell, V. K., Romero, E. G., Abdel Aziz, M. H., and Reilly, C. A. (2014), Pharmacol. Res. & Perspectives. 2(5), 1-10.
The HEK-293 cells stably overexpressing human TRPV4 were grown to confluence in 2% (w/v) gelatin-coated 96-well plates in DMEM:F12 media supplemented with 5% fetal bovine serum, 1× penicillin/streptomycin (Invitrogen) and Geneticin (300 μg/mL).
The HEK-293 cells were prepared for assay by replacing the growth media with a 1:1 solution of LHC-9 and Fluo 4-Direct (Invitrogen) reagent containing Fluo 4-AM, pluronic F-127, probenecid, and a proprietary quencher dye. The cells were then incubated at 37° C. for 1 h in a cell culture incubator. The cells were subsequently washed by replacing the loading solution with LHC-9 containing 1 mM water-soluble probenecid (Invitrogen), 750 μM Trypan Red (ATT Bioquest), and a test compound (at various concentrations). The cells were incubated for an additional 30 minutes at 37° C. to allow for Fluo 4-AM cleavage and activation, as well as equilibration to both the test compounds and Fluo 4.
An agonist treatment solution (90 nM GSK1016790A, a potent activator of TRPV4) was prepared in LHC9 at 3× concentration and 25 μL was added to 50 μL of media on the cells in 96 well plates, providing a final concentration of 30 nM. Changes in cellular fluorescence were monitored with a BMG Labtech NOVOStar fluorescence plate reader for 1 minute at 37° C. Data were quantified as the maximum rate of change in fluorescence intensity (max ΔF/s), corrected for media only treatment (negative control), and represented as the percentage of response relative to the no antagonist control. A minimum of three replicates were used for each treatment condition, with a minimum of 8 concentrations to derive the IC50 values reported for each antagonist. The IC50 values for each antagonist, which are shown in Table 4 below, were calculated according to methods described in the assays were performed according to methods described in: Deering-Rice, C. E., Johansen, M. E., Roberts, J. K., Thomas, K. C., Romero, E. G., Lee, J., Yost, G. S., Veranth, J. M., and Reilly, C. A. (2012), Mol. Pharmacol. 81(3), 411-419; Shapiro, D., Deering-Rice, C. E., Romero, E. G., Hughen, R. W., Light, A. R., Veranth, J. M., and Reilly, C. A. (2013), Chem Res. Toxicol., 26, 750-758; and Deering-Rice, C. E., Mitchell, V. K., Romero, E. G., Abdel Aziz, M. H., and Reilly, C. A. (2014), Pharmacol. Res. & Perspectives. 2(5), 1-10.

| pIC50 | SMILES |
| --- | --- |
| ≤ 4.30 | N#Cc1ccc(OCC2(C(=O)O)CN(S(=O)(=O)c3ccc(Cl)cc3Cl)C2)cc1 [Compound 2, 3-((4-Cyanophenoxy)methyl)-1-((2,4-dichlorophenyl)sulfonyl)azetidine-3-carboxylic acid] |
| 4.89 | N#Cc1ccc(OCC2(C(=O)NC3CCOCC3)CN(S(=O)(=O)c3ccc(Cl)cc3Cl)C2)cc1 [Compound 6, 3-((4-cyanophenoxy)methyl)-1-((2,4-dichlorophenyl)sulfonyl)-N-(tetrahydro-2H-pyran-4-yl)azetidine-3-carboxamide] |
| 5.30 | CCOC(=O)C1(COc2ccc(C#N)c(F)c2)CN(S(=O)(=O)c2ccc(Cl)cc2Cl)C1 [Compound 7, Ethyl 3-((4-cyano-3-fluorophenoxy)methyl)-1-((2,4-dichlorophenyl)sulfonyl)azetidine-3-carboxylate] |
| 7.21 | COCC1(COc2ccc(C#N)c(F)c2)CN(S(=O)(=O)c2ccc(Cl)cc2Cl)C1 [Compound 13, 4-((1-((2,4-Dichlorophenyl)sulfonyl)-3-(methoxymethyl)azetidin-3-yl)methoxy)-fluorobenzonitrile] |
| 7.68 | N#Cc1ccc(OCC2(COS(=O)(=O)CCN)CN(S(=O)(=O)c3ccc(Cl)cc3Cl)C2)cc1F [Compound 15, (3-((4-Cyano-3-fluorophenoxy)methyl)-1-((2,4-dichlorophenyl)sulfonyl)azetidin-3-yl)methyl 2-aminoethane-1-sulfonate trifluoroacetate salt] |
| 9.15 | N#Cc1ccc(OCC2(CNC3CCOCC3)CN(S(=O)(=O)c3ccc(Cl)cc3Cl)C2)cc1F [Compound 18, 4-((1-((2,4-Dichlorophenyl)sulfonyl)-3-(((tetrahydro-2H-pyran-4-yl)amino)methyl)azetidin-3-yl)methoxy)-2-fluorobenzonitrile hydrochloride] |
| 7.73 | COCCNCC1(COc2ccc(C#N)c(F)c2)CN(S(=O)(=O)c2ccc(Cl)cc2Cl)C1 [Compound 21, 4-((1-((2,4-dichlorophenyl)sulfonyl)-3-(((2-methoxyethyl)amino)methyl)azetidin-3-yl)methoxy)-2-fluorobenzonitrile hydrochloride] |
| 6.93 | N#Cc1ccc(OCC2(CNCc3nccs3)CN(S(=O)(=O)c3ccc(Cl)cc3Cl)C2)cc1F [Compound 22, 4-((1-((2,4-dichlorophenyl)sulfonyl)-3-(((thiazol-2-ylmethyl)amino)methyl)azetidin-3-yl)methoxy)-2-fluorobenzonitrile hydrochloride] |
| 8.39 | N#Cc1ccc(OCC2(CNCC3CCOC3)CN(S(=O)(=O)c3ccc(Cl)cc3Cl)C2)cc1F (stereo not shown) [Compound 23, 4-((1-((2,4-Dichlorophenyl)sulfonyl)-3-((((tetrahydrofuran-3-yl)methyl)amino)methyl)azetidin-3-yl)methoxy)-2-fluorobenzonitrile hydrochloride] |
| 9.00 | N#Cc1ccc(OCC2(CNCC3COC3)CN(S(=O)(=O)c3ccc(Cl)cc3Cl)C2)cc1F [Compound 27, 4-((1-((2,4-Dichlorophenyl)sulfonyl)-3-(((oxetan-3-ylmethyl)amino)methyl)azetidin-3-yl)methoxy)-2-fluorobenzonitrile] |
| 8.06 | N#Cc1ccc(OCC2(CNC[C@@H]3CCCO3)CN(S(=O)(=O)c3ccc(Cl)cc3Cl)C2)cc1F [Compound 28, (S)-4-((1-((2,4-dichlorophenyl)sulfonyl)-3-((((tetrahydrofuran-2-yl)methyl)amino)methyl)azetidin-3-yl)methoxy)-2-fluorobenzonitrile hydrochloride] |
| 8.28 | N#Cc1ccc(OCC2(CNCC3CCOCC3)CN(S(=O)(=O)c3ccc(Cl)cc3Cl)C2)cc1F [Compound 29, 4-((1-((2,4-Dichlorophenyl)sulfonyl)-3-((((tetrahydro-2H-pyran-4-yl)methyl)amino)methyl)azetidin-3-yl)methoxy)-2-fluorobenzonitrile hydrochloride] |

The remaining lines, values behind:

| SMILES | pIC50 |
| --- | --- |
| CC1(COc2ccc(C#N)cc2)CN(S(=O)(=O)c2ccc(Cl)cc2Cl)C1 [Compound 1, 4-((1-((2,4-Dichlorophenyl)sulfonyl)-3-methylazetidin-3-yl)methoxy)benzonitrile] | 6.29 |
| N#Cc1ccc(OCC2(CO)CN(S(=O)(=O)c3ccc(Cl)cc3Cl)C2)cc1 [Compound 3, 4-((1-((2,4-Dichlorophenyl)sulfonyl)-3-(hydroxymethyl)azetidin-3-yl)methoxy)benzonitrile] | 6.57 |
| CNC(=O)C1(COc2ccc(C#N)cc2)CN(S(=O)(=O)c2ccc(Cl)cc2Cl)C1 [Compound 4, 3-((4-Cyanophenoxy)methyl)-1-((2,4-dichlorophenyl)sulfonyl)-N-methylazetidine-3-carboxamide] | 5.34 |
| CNCCN(C)C(=O)C1(COc2ccc(C#N)cc2)CN(S(=O)(=O)c2ccc(Cl)cc2Cl)C1 [Compound 5, 3-((4-Cyanophenoxy)methyl)-1-((2,4-dichlorophenyl)sulfonyl)-N-methyl-N-(2-(methylamino)ethyl)azetidine-3-carboxamide] | 5.65 |
| N#Cc1ccc(OCC2(C(N)=O)CN(S(=O)(=O)c3ccc(Cl)cc3Cl)C2)cc1F [Compound 9, 3-((4-Cyano-3-fluorophenoxy)methyl)-1-((2,4-dichlorophenyl)sulfonyl)azetidine-3-carboxamide] | 5.96 |
| NCc1ccc(OCC2(CO)CN(S(=O)(=O)c3ccc(Cl)cc3Cl)C2)cc1F [Compound 10, (3-((4-(Aminomethyl)-3-fluorophenoxy)methyl)-1-((2,4-dichlorophenyl)sulfonyl)azetidin-3-yl)methanol] | 5.00 |
| CC(=O)OCC1(COc2ccc(C#N)c(F)c2)CN(S(=O)(=O)c2ccc(Cl)cc2Cl)C1 [Compound 12, (3-((4-Cyano-3-fluorophenoxy)methyl)-1-((2,4-dichlorophenyl)sulfonyl)azetidin-3-yl)methyl acetate] | 6.52 |
| N#Cc1ccc(OCC2(COP(=O)(O)O)CN(S(=O)(=O)c3ccc(Cl)cc3Cl)C2)cc1F [Compound 14, Sodium (3-((4-cyano-3-fluorophenoxy)methyl)-1-((2,4-dichlorophenyl)sulfonyl)azetidin-3-yl)methyl phosphate] | 7.15 |
| N#Cc1ccc(OCC2(CNCCCO)CN(S(=O)(=O)c3ccc(Cl)cc3Cl)C2)cc1F [Compound 19, 4-((1-((2,4-Dichlorophenyl)sulfonyl)-3-(((3-hydroxypropyl)amino)methyl)azetidin-3-yl)methoxy)-2-fluorobenzonitrile hydrochloride] | 9.30 |
| N#Cc1ccc(OCC2(CNCC(N)=O)CN(S(=O)(=O)c3ccc(Cl)cc3Cl)C2)cc1F [Compound 20, 2-(((3-((4-Cyano-3-fluorophenoxy)methyl)-1-((2,4-dichlorophenyl)sulfonyl)azetidin-3-yl)methyl)amino)acetamide hydrochloride] | 6.82 |
| CC(O)CNCC1(COc2ccc(C#N)c(F)c2)CN(S(=O)(=O)c2ccc(Cl)cc2Cl)C1 (stereo not shown) [Compound 24, 4-((1-((2,4-Dichlorophenyl)sulfonyl)-3-(((2-hydroxypropyl)amino)methyl)azetidin-3-yl)methoxy)-2-fluorobenzonitrile hydrochloride] | 9.05 |
| CCNCC1(COc2ccc(C#N)c(F)c2)CN(S(=O)(=O)c2ccc(Cl)cc2Cl)C1 [Compound 25, 4-((1-((2,4-Dichlorophenyl)sulfonyl)-3-((ethylamino)methyl)azetidin-3-yl)methoxy)-2-fluorobenzonitrile hydrochloride] | 9.00 |
| N#Cc1ccc(OCC2(CNC3COC3)CN(S(=O)(=O)c3ccc(Cl)cc3Cl)C2)cc1F [Compound 26, 4-((1-((2,4-Dichlorophenyl)sulfonyl)-3-((oxetan-3-ylamino)methyl)azetidin-3-yl)methoxy)-2-fluorobenzonitrile] | 8.10 |
